{"source": "patent US8623832B2", "about": "“Peptide compositions that bind TLR-4” (The Board of Regents of the University of Oklahoma, priority 2011, dated 2014)", "key": {"[1]": {"system": "SW480 cells", "assay": "Cell cycle analysis of SW480 cells by flow cytometry", "assay_type": "cell-based, human", "conditions": "SPA4 10, 50 and 100 μM; over 40 h", "procedure": "Cell cycle analysis: The effect of SPA4 peptide on cell cycle progression was studied by flow-cytometry. About 500,000 cells were seeded per well into 6 well plate. The cells were challenged with LPS (100 ng/ml) for 4 hours. After the completion of 4 hours LPS-challenge period, SPA4 peptide (10, 50 and 100 μM) was added to the cells. Cells were further incubated for 20 and 40 hours. Vehicle-treated cells were also included. After 20 and 40 hours of total incubation period, both adherent and non-adherent cells were collected and centrifuged at 260×g for 5 minutes. The supernatant was discarded and cell pellet was washed with DPBS (Invitrogen-Gibco, NY). The cells were fixed in 70% ice-cold ethanol on ice for 1 hour and stained with a buffer containing 200 μg/ml DNase-free RNase A (Sigma, St Louis, Mo.), 0.1% v/v Triton-X 100 and 20 μg/ml propidium iodide (Molecular Probes, Carlsbad, Calif.). The cells were incubated at 4° C. for 30 minutes in the dark, before measuring cell fluorescence using Becton Dickson FACS Calibur flow cytometer. The single cells were selected by gating out the aggregates and the percent number of cell populations in different cell cycle phases were calculated by de-convoluting the results ModFIT software (Verity software house, Topsham, Me.)."}, "[2]": {"system": "NF-κB", "assay": "NF-κB luciferase reporter activity in LPS-challenged JAWS II dendritic cells", "assay_type": "cell-based, mouse", "procedure": "At the molecular level, the effects of SPA4 peptide on LPS-induced NF-κB activity were studied in dendritic cells (JAWS II cells) co-transfected with NFκB luciferase reporter plasmid construct and dominant negative construct of MYD88 (an adaptor protein downstream of TLR4; MYD88DN). Briefly, JAWS II dendritic cells (0.5×10^6) were transfected with NF-κB luciferase reporter and/or MYD88DN using TransIT-TKO transfection reagent as described earlier (Awasthi S et al., 2003). After 20-24 hours of incubation, the transfected cells were challenged with LPS (100 ng/ml) for 4 hours and treated with SPA4 peptide (10 μM) for 1 hour. After the completion of 5 hours incubation, the cell lysates were prepared in cell lysis buffer and NF-κB-luciferase reporter activity was measured as per the manufacturer's instructions (Promega, WI)."}, "[3]": {"system": "primary adult baboon lung DCs and fetal baboon lung DC-precursor cells", "assay": "Phagocytosis of pHrodo-labeled E. coli bioparticles by primary baboon lung DCs / fetal DC-precursor cells", "assay_type": "cell-based", "procedure": "Freshly collected lobe of the lung or whole lung samples of adult and fetal baboons were transported on ice in RPMI 1640 medium containing 2 mM glutamine, 1 mM HEPES, 10 μg/ml gentamicin, 100 U/ml penicillin, 100 μg/ml streptomycin and 10% FBS. After a mild mechanical disruption, the single cell suspension was seeded in a tissue culture flask (Nalge-Nunc International Corp, NY) at a density of 30-50×10^6 leukocytes/175 cm^2 flask in RPMI 1640 medium containing 2 mM glutamine, 1 mM HEPES, 10 μg/ml gentamicin, 100 U/ml penicillin, 100 μg/ml streptomycin and 10% FBS. The light-density DC-populations were harvested using OptiPrep cell-separation solution (density 1.32 g/ml, Accurate Chemicals, NY) (Awasthi and Cooper, 2006; Awasthi et al., 2009). The immunophenotype and basic characteristics of the lung DC-population isolated from fetal and adult baboons have been described earlier (Awasthi et al., 2009). Here, first the immunophenotype of KG-1-derived DCs and fetal baboon lung DC-precursors or adult baboon lung DCs were compared by flow cytometry. Briefly, cells were suspended in Dulbecco's phosphate buffered saline (DPBS) containing 1% FBS and 0.09% sodium azide and incubated with fluorochrome-conjugated antibodies to HLA-DP, DQ, DR, CD11c, CD40, CD80, CD86 (typical DC-markers) as described earlier.\nAfter confirming that the fluorescence is of phagocytosed bioparticles, comprehensive experiments were performed in presence and absence of effector molecules (SP-A and TLR4-MD2 proteins). […] The fluorescence readings were taken at 550 nm excitation and 600 nm emission wavelengths using SpectraMax M2 spectrofluorometer (Molecular Devices, CA).\nThe phagocytosis index was calculated by subtracting the average fluorescence intensity of the reaction with bioparticles alone from the control (basal without any effector molecules) and experimental wells. Finally, the percent effect was calculated using the following formula: % effect=(Net experimental phagocytosis/Net basal phagocytosis)×100%"}, "[4]": {"system": "primary adult baboon lung DCs and fetal baboon lung DC-precursor cells", "assay": "TNF-α secretion against E. coli by baboon lung DCs (ELISA)", "assay_type": "cell-based", "procedure": "After confirming that the fluorescence is of phagocytosed bioparticles, comprehensive experiments were performed in presence and absence of effector molecules (SP-A and TLR4-MD2 proteins). The cells were pulsed with purified, native baboon lung SP-A and recombinant human TLR4-MD2 or MD2 proteins (RnD Systems, MN) for an hour prior to phagocytosis assay with pHrodo-conjugated, heat-killed E. coli K12 bioparticles (Invitrogen-Molecular Probes, CA). MD2 protein was also included, because SP-A is known to interact with MD2, and it was questioned if MD2 can influence the immune functions of DC-population. The assay was performed in serum-free Opti-MEM medium (Invitrogen, CA), as described by the manufacturer (Invitrogen-Molecular Probes, CA). The assay mixtures were incubated for another 3 hours at 37° C. in 5% CO2 incubator. The fluorescence readings were taken at 550 nm excitation and 600 nm emission wavelengths using SpectraMax M2 spectrofluorometer (Molecular Devices, CA).\nCytokine (TNF-α) measurement: The TNF-α levels were measured in cell-free supernatants by enzyme linked immunosorbent assay (ELISA) using a commercially available kit (eBioscience, CA), as per the manufacturer's instructions. Briefly, the microwells of a 96 well plate were coated with diluted purified anti-human TNF-α antibody. The wells were washed, and nonspecific sites were blocked. Diluted recombinant human TNF-α (7.8-500 pg/ml standard) and cell-free-supernatant (1:10) were added to the antibody-coated wells, and the plate was incubated overnight at 4° C. The next day, the plate was washed and incubated with biotin-conjugated anti-human TNF-α antibody followed by avidin-horseradish peroxidase and substrate solution. The reaction was stopped by adding 2 N H2SO4 and read at 450 nm (Molecular Devices, CA)."}}, "note": "Where no end group is shown, it is not given here.", "data": [{"substance": "GDFRYSDGTPVNYTNWYRGE [SPA4, GDFRYSDGT PVNYTNWYRGE]", "values": [{"measurement": "cell cycle progression of SW480 cells", "setting": "[1]", "result": "did not affect"}, {"measurement": "MYD88-independent NF-κB activity", "setting": "[2]; JAWS II co-transfected with MYD88 dominant negative", "result": "does not affect"}, {"measurement": "LPS-induced NF-κB activity in dendritic cells", "setting": "[2]; JAWS II, LPS 100 ng/ml 4 hours, SPA4 10 μM 1 hour", "result": "inhibits"}]}, {"substance": "SP-A: native surfactant protein-A purified from bronchioalveolar lavage fluid of a normal healthy adult baboon (MWLCPLALTLTLMAASGAACEVKDVCVGSPGIPGTPGSHGLPGRDGRDGVKGDPGPP; listed as Papio cynocephalus)", "values": [{"measurement": "phagocytic uptake of E. coli", "setting": "[3]; SP-A 2 μM, TLR4-MD2 0.3 μM", "result": "increased"}, {"measurement": "phagocytic uptake of E. coli when SP-A and TLR4-MD2 proteins were added together", "setting": "[3]; uptake remained increased versus basal", "result": "no additive effect"}, {"measurement": "secretion of TNF-α by DCs in response to E. coli", "setting": "[4]; 3 hours phagocytosis reaction, protein added alone", "result": "did not induce the secretion of TNF-α"}, {"measurement": "TLR4-MD2 protein-induced TNF-α release against E. coli", "setting": "[4]; SP-A and TLR4-MD2 added together, 3 hours with E. coli", "result": "reduces"}]}]}
